Test results reported in patent US9168247B2, “Beta carboline derivatives useful in the treatment of proliferative disorders” (FACULTES UNIVERSITAIRES NOTRE DAME DE LA PAIX, priority 2010, dated 2015).
Like-named read-outs stand apart in the source and are kept apart here.

Assays:
[1] = tested on: U373 glioma cells; assay: MTT test, overall cell growth, U373; type: cell-based, human; settings: 72 hours of incubation
Protocol: (§1) MTT tests were performed in order to rapidly, i.e., within 5 days, measure the effect of the present compounds on the overall cell growth. The test measured the number of metabolically active living cells that were able to transform the yellow product 3-(4,5-dimethylthiazol-2-yl)-2,5-diphenyl tetrazolium bromide (herein referred as MTT) into the blue product formazan dye by mitochondrial reduction. The amount of formazan obtained at the end of the experiment, measured by means of a spectrophotometer, is directly proportional to the number of living cells. Optical density determination thus enabled a quantitative measurement of the effect of the investigated compounds as compared to the control condition (untreated cells) and/or to other reference compounds.
(§2) Five human cancer cell lines set forth in Table 3 were used in the MTT tests. These cancer cell lines cover two histological cancer types including glioma (Hs683, T98G, U373), and oesophageal (OE21, OE33) cancers. The U373 cell line is apoptosis-resistant but autophagy-sensitive.
(§3) To perform the assay, cells were allowed to grow in 96-well micro-wells with a flat bottom with an amount of 100 μl of cell suspension per well with 5,000 to 8,000 cells/well depending on the cell type used. Each cell line was seeded in its appropriate culture medium.
(§4) The detailed experimental procedure was as follows: after a 24-hour period of incubation at 37° C., the culture medium was replaced by 100 μl of fresh medium in which the tested compound was previously dissolved, at the following molar concentrations: 1×10^−8 M, 5×10^−8 M, 1×10^−7 M, 5×10^−7 M, 1×10^−6 M, 5×10^−6 M, 1×10^−5 M, 5×10^−5 M and 1×10^−4 M. Each experiment was performed in sestuplicate (6 times).
(§5) After 72 hours of incubation at 37° C. with (experimental conditions) or without (control condition) the compound to be tested, the medium was replaced by 100 μl MTT dissolved in RPMI (1640 without phenol red) at a concentration of 0.5 or 1 mg/ml. The micro-wells were subsequently incubated during 3 hours and a half at 37° C. and centrifuged at 1300 rpm during 10 minutes. MTT was removed and formazan crystals formed were dissolved in […]. The micro-wells were shaken for 5 minutes and read on a spectrophotometer at wavelengths of 570 nm (maximal formazan absorbance).
(§6) For each experimental condition, the mean optical density was calculated, allowing the determination of the percentage of remaining living cells in comparison to the control.
(§7) The origin of all the cell lines we used, along with their biological characteristics, and the validation procedures of the MTT colorimetric assay as employed here are fully detailed in Van Quaquebeke et al., 2005, J Med Chem 48:849-856; Ingrassia et al., 2009, J Med Chem 52:1100-1114; Mathieu et al., 2009, J Cell Mol Med, Feb. 20, 2009.

[2] = tested on: T98G glioma cells; assay: MTT test, overall cell growth, T98G; type: cell-based, human; settings: 72 hours of incubation
Protocol: as §1, §2, §3, §4, §5, §6, §7

[3] = tested on: Hs683 glioma cells; assay: MTT test, overall cell growth, Hs683; type: cell-based, human
Protocol: as §1, §2, §3, §4, §5, §6, §7

[4] = tested on: OE21 oesophageal cancer cells; assay: MTT test, overall cell growth, OE21; type: cell-based, human
Protocol: as §1, §2, §3, §4, §5, §6, §7

[5] = tested on: human cancer cell lines (U373, T98G, Hs683, OE21, OE33); assay: MTT test, mean over the cancer cell lines; type: cell-based; settings: mean over the cancer cell lines, MTT test, read-out: IC50 Mean ± SEM
Protocol: as §1, §2, §3, §4, §5, §6, §7

[6] = tested on: OE33 oesophageal cancer cells; assay: MTT test, overall cell growth, OE33; type: cell-based, human
Protocol: as §1, §2, §3, §4, §5, §6, §7

[7] = tested on: U373 cells; assay: Cellular imaging (videomicroscopy) of cultured U373 cells: antiproliferative class and global growth ratio; type: cell-based, human; settings: for Anti proliferative class: cellular imaging of cultured U373 cells over three consecutive days
Source text: The effects of the di- and tri-substituted beta-carboline derivatives as described herein can also be determined on cell proliferation, migration and morphology by means of a cellular imaging approach (Debeir et al., Cytometry 60:29-40, 2004; Debeir et al., IEEE Trans Med Imaging 24:697-711, 2005) either in, e.g., the human U373-MG glioma cell line, which is apoptosis-resistant but autophagy-sensitive (Lefranc F et al., Neurosurgery 2008) or in, e.g., the human A549 non-small-cell-lung cancer cell line, which is apoptosis-resistant and autophagy-resistant (Mijatovic T et al., Neoplasia 2006, May; 8(5):402-12).
[…] The experiments are conducted in quadruplicates.
The behaviour of the cells, in terms of morphology, growth and death are thus investigated. The effect on the overall growth is measured by counting the number of cells on the first (0 h) and the last image (72 h) of each film. The global growth ratio (GGR) is then deduced by dividing the number of cells on the last image by the number of cells on the first image. The ratio GGRtreated cells/GGRcontrol cells is further calculated thereby providing a value that describes the effect of compounds of the present invention on the overall cell growth.
The methodology is fully described and validated in Debeir et al., 2008, Exp Cell Res 314:2985-2998 and Mathieu et al., 2009, J Cell Mol Med, Feb. 20, 2009.

[8] = Homo sapiens, Hs 683, 72 hours of incubation
[9] = Homo sapiens, OE21, 72 hours of incubation

Row | IC50 [1] | IC50 [2] | IC50 ([3]; 72 hours of incubation) | IC50 ([4]; 72 hours of incubation) | IC50 [5] | IC50 ([1]; Homo sapiens, U373 MG) | IC50 ([2]; Homo sapiens, T98G) | IC50 [3, 8] | IC50 [4, 9] | IC50 ([5]; Homo sapiens) | IC50 ([6]; 72 hours of incubation) | SMILES | IC50 ([6]; Homo sapiens, OE33, 72 hours of incubation) | Anti proliferative class [7] | global growth ratio (GGR) ([7]; GG treated cells/GG control cells, 72 h after drug addition, drug at its IC50 (MTT-test determined))
1 | 0.22 ± 0.03 µM | 0.41 ± 0.01 µM | 0.26 ± 0.01 µM | 0.48 ± 0.04 µM | 0.34 ± 0.06 µM |  |  |  |  |  |  | Cc1c2c(cc[n+]1CCC(C)C)c1ccc(OCCC(C)C)cc1n2CCC(C)C [PL12] |  |  | 
2 |  |  |  |  |  | 2 ± 0.3 µM | 2.4 ± 0.4 µM | 2.31 ± 0.09 µM | 2.4 ± 0.3 µM | 2.3 ± 0.1 µM |  | Cc1c2c(cc[n+]1CCc1ccccc1)c1ccc(OCc3ccccc3)cc1n2Cc1ccccc1 [PL4, 1-methyl-2-phenethyl-7-benzyloxy-9-benzyl-β-carbolin-2-ium bromide] |  |  | 
3 | 9 ± 2 µM | 61 ± 6 µM | 31 ± 3 µM | 25 ± 4 µM | 32 ± 11 µM |  |  |  |  |  |  | Cc1c2c(cc[n+]1CCO)c1ccc(OCc3ccccc3)cc1n2Cc1ccccc1 [PL1] |  |  | 
4 | 2.5 ± 0.3 µM | 2.9 ± 0.4 µM | 4 ± 0.3 µM | 7.6 ± 0.3 µM | 4 ± 1 µM |  |  |  |  |  |  | Cc1c2c(cc[n+]1CCO)c1ccc(OCCC(C)C)cc1n2CCC(C)C [PL11] |  |  | 
5 | 3.4 ± 0.1 µM | 3.5 ± 0.1 µM | 3.1 ± 0.1 µM | 3.7 ± 0.1 µM | 3.4 ± 0.1 µM |  |  |  |  |  |  | Cc1c2c(cc[n+]1Cc1ccccc1)c1ccc(OCCC(C)C)cc1n2CCC(C)C [PL13] |  |  | 

Continued, compound first:

Row | SMILES | IC50 [1] | IC50 [2] | IC50 ([3]; 72 hours of incubation) | IC50 ([4]; 72 hours of incubation) | IC50 [5] | IC50 ([1]; Homo sapiens, U373 MG) | IC50 ([2]; Homo sapiens, T98G) | IC50 [3, 8] | IC50 [4, 9] | IC50 ([5]; Homo sapiens) | IC50 ([6]; 72 hours of incubation) | IC50 ([6]; Homo sapiens, OE33, 72 hours of incubation) | Anti proliferative class [7] | global growth ratio (GGR) ([7]; GG treated cells/GG control cells, 72 h after drug addition, drug at its IC50 (MTT-test determined))
6 | COc1ccc2c(c1)[nH]c1c(C)nccc12 [harmine, reference compound] |  |  |  |  |  | 32 ± 2 µM | 24 ± 2 µM |  | 32 ± 2 µM | 28 ± 3 µM |  | 18 ± 1 µM | I (class I: actually cytostatic for 3 days (<10% of cell death at the 3rd day)) | 
7 | Cc1c2c(cc[n+]1Cc1ccccc1F)c1ccc(OCc3ccc(F)cc3)cc1n2Cc1ccc(F)cc1.[Br-] [CV25, 1-methyl-2-(2-fluorobenzyl-7-(4-fluorobenzyl)oxy-9-(4-fluorobenzyl)-β-carbolin-2-ium bromide] | 0.46 ± 0.08 µM | 0.43 ± 0.02 µM | 1.2 ± 0.4 µM | 1.6 ± 0.3 µM | 1.1 ± 0.3 µM |  |  |  |  |  | 1.6 ± 0.2 µM |  |  | 
8 | Cc1c2c(cc[n+]1Cc1ccccc1F)c1ccc(OCc3ccc(F)cc3)cc1n2Cc1ccc(F)cc1.[Br-] [CV25] |  |  |  |  |  |  |  |  |  |  |  |  | I (class I: actually cytostatic for 3 days (<10% of cell death at the 3rd day)) | 0.4
9 | Cc1c2c(cc[n+]1CC(=O)c1ccccc1)c1ccc(OCc3ccccc3)cc1n2Cc1ccccc1 [CV52] | 22 ± 2 µM | 19 ± 2 µM | 26 ± 3 µM | 17 ± 2 µM | 21 ± 2 µM |  |  |  |  |  |  |  |  | 
10 | CCC[n+]1ccc2c3ccc(OCc4ccccc4)cc3n(Cc3ccccc3)c2c1C [CV56, 1-methyl-2-propyl-7-benzyloxy-9-benzyl-β-carbolin-2-ium bromide] |  |  |  |  |  | 2.5 ± 0.3 µM | 11 ± 1 µM | 0.6 ± 0.1 µM | 3.4 ± 0.8 µM | 5 ± 2 µM |  |  |  | 
